Experimental data published in ChEMBL document CHEMBL1201862, “PubChem BioAssay data set” (2004).
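Assay format: 96-well plates, 48-hour exposure. The concentration for 50% growth inhibition is given as GI50.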 Calls of active or inactive are those of the source. Rule as the data show it: active = GI50 up to about 1.1 µM and inactive = higher.

Legend:
Assay in all cases: NCI anticancer screen, dose series, 48 h
786-0 = test system: 786-0
COLO 205 = test system: COLO 205
U-251 = test system: U-251
EKVX = test system: EKVX
OVCAR-5 = test system: OVCAR-5
CAKI-1 = test system: CAKI-1
Malme-3M = test system: Malme-3M
SK-MEL-28 = test system: SK-MEL-28
NCI-H23 = test system: NCI-H23
DU-145 = test system: DU-145
MDA-MB-231 = test system: MDA-MB-231
HT-29 = test system: HT-29
NCI-H226 = test system: NCI-H226
NCI-H460 = test system: NCI-H460
MDA-MB-435 = test system: MDA-MB-435
A549 = test system: A549
LOX IMVI = test system: LOX IMVI
MOLT-4 = test system: MOLT-4
CCRF-CEM = test system: CCRF-CEM
SR = test system: SR

Measured: GI50

Oc1cn(-c2ccc(Cl)cc2)nc1-c1nnc(Nc2ccccc2)o1
inactive: 786-0 16.6 µM | COLO 205 21.4 µM | U-251 17.5 µM | EKVX 23.9 µM | OVCAR-5 88.7 µM | CAKI-1 32.3 µM | Malme-3M 25.2 µM | SK-MEL-28 17.7 µM | NCI-H23 14.1 µM | DU-145 15.4 µM | MDA-MB-231 12.4 µM | HT-29 9.55 µM | NCI-H226 8.39 µM | NCI-H460 19.9 µM | MDA-MB-435 16.8 µM | A549 20.4 µM

COP(=O)(O)/C=C/C(NC(=O)C(Cl)(Cl)Cl)c1ccccc1 (configuration not stated)
inactive: 786-0 > 100 µM | COLO 205 > 100 µM | U-251 > 100 µM | EKVX > 100 µM | OVCAR-5 > 100 µM | CAKI-1 > 100 µM | Malme-3M > 100 µM | LOX IMVI > 100 µM | MOLT-4 > 100 µM | SK-MEL-28 > 100 µM | NCI-H23 > 100 µM | DU-145 > 100 µM | MDA-MB-231 > 100 µM | HT-29 > 100 µM | NCI-H226 > 100 µM | NCI-H460 > 100 µM | MDA-MB-435 > 100 µM | A549 > 100 µM

O=C(Cc1ccccc1)NN1C(=O)/C(=C\c2ccc([N+](=O)[O-])cc2)S/C1=N\c1ccccc1
inactive: 786-0 > 100 µM | COLO 205 > 100 µM | U-251 > 100 µM | EKVX > 100 µM | OVCAR-5 > 100 µM | CCRF-CEM 68.9 µM | MOLT-4 55 µM | SK-MEL-28 > 100 µM | NCI-H23 68.5 µM | DU-145 > 100 µM | MDA-MB-231 > 100 µM | HT-29 > 100 µM | NCI-H226 > 100 µM | NCI-H460 > 100 µM | MDA-MB-435 > 100 µM | A549 > 100 µM

CCCCOC(=O)C1CC[C@H]2[C@@H]3CCc4cc(OC(=O)c5cccc6c(=O)c7ccccc7[nH]c56)ccc4[C@H]3CC[C@]12C (some centres not stated)
inactive: 786-0 9.89 µM | COLO 205 7.29 µM | U-251 9.79 µM | EKVX 2.48 µM | OVCAR-5 11.3 µM | CAKI-1 7.19 µM | Malme-3M 10.9 µM | LOX IMVI 8.83 µM | MOLT-4 8.81 µM | SK-MEL-28 11 µM | NCI-H23 8.95 µM | DU-145 8.17 µM | MDA-MB-231 6.98 µM | HT-29 10.4 µM | NCI-H226 11.4 µM | MDA-MB-435 8.63 µM | A549 9.35 µM

Cn1c2c(c3ccccc31)CC(=S)N1CCCC(CC2O)C1 (configuration not stated)
inactive: 786-0 > 100 µM | COLO 205 > 100 µM | U-251 > 100 µM | CAKI-1 > 100 µM | Malme-3M > 100 µM | LOX IMVI > 100 µM | SK-MEL-28 > 100 µM | NCI-H23 > 100 µM | DU-145 > 100 µM | MDA-MB-231 > 100 µM | HT-29 > 100 µM | NCI-H226 > 100 µM | NCI-H460 > 100 µM | MDA-MB-435 > 100 µM | A549 > 100 µM

C=CCCCN1C(=O)C2C3c4ccccc4C(C=O)(c4ccccc43)C2C1=O (configuration not stated)
inactive: 786-0 13.3 µM | COLO 205 12 µM | U-251 11.2 µM | EKVX 6.03 µM | OVCAR-5 18.9 µM | CCRF-CEM 3.58 µM | SR 4.79 µM | CAKI-1 16 µM | Malme-3M 13.6 µM | LOX IMVI 6.07 µM | MOLT-4 4.57 µM | SK-MEL-28 15.9 µM | NCI-H23 12.4 µM | DU-145 11.4 µM | MDA-MB-231 9.42 µM | HT-29 10 µM | NCI-H460 15.2 µM | A549 15.2 µM

O=C1Nc2c(Cl)cc(Cl)cc2/C1=N/N=C/c1ccco1
inactive: 786-0 38.8 µM | COLO 205 22.4 µM | U-251 27.7 µM | EKVX 7.6 µM | OVCAR-5 61 µM | CCRF-CEM 29 µM | SR 24.8 µM | CAKI-1 24.3 µM | Malme-3M 56.6 µM | LOX IMVI 17.8 µM | MOLT-4 27.2 µM | SK-MEL-28 33 µM | NCI-H23 25 µM | MDA-MB-231 20.3 µM | HT-29 28.8 µM | NCI-H226 23 µM | NCI-H460 28.2 µM | MDA-MB-435 29.9 µM | A549 33.4 µM

Cc1c(C#N)c2nc3ccccc3n2c(=O)/c1=C/Nc1ccc(Cl)cc1
inactive: 786-0 6.25 µM | COLO 205 95.1 µM | U-251 7.66 µM | EKVX 50.7 µM | OVCAR-5 9.64 µM | SR > 100 µM | CAKI-1 11.3 µM | Malme-3M > 100 µM | LOX IMVI 30.4 µM | MOLT-4 34.9 µM | SK-MEL-28 > 100 µM | NCI-H23 18.1 µM | MDA-MB-231 24.8 µM | HT-29 > 100 µM | NCI-H226 42.3 µM | NCI-H460 29.2 µM | MDA-MB-435 94.4 µM | A549 53.1 µM
